From ChEMBL document CHEMBL1201862, “PubChem BioAssay data set” (2004)
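Interpolation was linear, between the two tested concentrations surrounding the appropriate level; five concentrations were tested over 48 hours in 96-well plates. GI50 marks 50% less growth.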 Calls of active or inactive are those of the source. No stated cut-off is given here; in the data, active = GI50 up to about 1.1 µM and inactive = higher.

Experiments:
Assay in all cases: NCI-60 cell line screen, 48 h
TK-10 = test system: TK-10
HOP-18 = test system: HOP-18
K562 = test system: K562
LXFL 529 = test system: LXFL 529
CCRF-CEM = test system: CCRF-CEM
HOP-92 = test system: HOP-92
LOX IMVI = test system: LOX IMVI
KM-20L2 = test system: KM-20L2
RXF 393 = test system: RXF 393
SF-295 = test system: SF-295
SK-OV-3 = test system: SK-OV-3
NCI-H226 = test system: NCI-H226
COLO 205 = test system: COLO 205
A549 = test system: A549
A498 = test system: A498
RXF 631 = test system: RXF 631
SNB-75 = test system: SNB-75
NCI-H522 = test system: NCI-H522
786-0 = test system: 786-0
OVCAR-5 = test system: OVCAR-5
HCC 2998 = test system: HCC 2998
UACC-62 = test system: UACC-62
SN12C = test system: SN12C
ACHN = test system: ACHN
M19-MEL = test system: M19-MEL
RPMI-8226 = test system: RPMI-8226
Malme-3M = test system: Malme-3M
HCT-116 = test system: HCT-116
HOP-62 = test system: HOP-62
HL-60 = test system: HL-60
SNB-19 = test system: SNB-19
EKVX = test system: EKVX
SK-MEL-5 = test system: SK-MEL-5
SNB-78 = test system: SNB-78
SF-268 = test system: SF-268
MOLT-4 = test system: MOLT-4
OVCAR-3 = test system: OVCAR-3
SR = test system: SR
HCT-15 = test system: HCT-15
SK-MEL-2 = test system: SK-MEL-2
KM12 = test system: KM12
SF-539 = test system: SF-539
HT-29 = test system: HT-29
OVCAR-8 = test system: OVCAR-8
UACC-257 = test system: UACC-257
UO-31 = test system: UO-31
DLD-1 = test system: DLD-1
IGROV-1 = test system: IGROV-1
NCI-H460 = test system: NCI-H460
SK-MEL-28 = test system: SK-MEL-28
M14 = test system: M14
NCI-H23 = test system: NCI-H23
U-251 = test system: U-251
DMS-114 = test system: DMS-114
SW-620 = test system: SW-620
OVCAR-4 = test system: OVCAR-4
DMS-273 = test system: DMS-273
CAKI-1 = test system: CAKI-1

SMILES: CC(=O)Oc1c(C)c(-c2ccccc2)c(C)c(-c2ccccc2)c1C(=S)c1ccccc1
- GI50 (TK-10): > 100 µM (inactive)
- GI50 (HOP-18): > 100 µM (inactive)
- GI50 (K562): > 100 µM (inactive)
- GI50 (LXFL 529): > 100 µM (inactive)
- GI50 (CCRF-CEM): > 100 µM (inactive)
- GI50 (HOP-92): > 100 µM (inactive)
- GI50 (LOX IMVI): > 100 µM (inactive)
- GI50 (KM-20L2): 67.3 µM (inactive)
- GI50 (RXF 393): > 100 µM (inactive)
- GI50 (SF-295): > 100 µM (inactive)
- GI50 (SK-OV-3): > 100 µM (inactive)
- GI50 (NCI-H226): > 100 µM (inactive)
- GI50 (COLO 205): > 100 µM (inactive)
- GI50 (A549): > 100 µM (inactive)
- GI50 (A498): > 100 µM (inactive)
- GI50 (RXF 631): > 100 µM (inactive)
- GI50 (SNB-75): > 100 µM (inactive)
- GI50 (NCI-H522): > 100 µM (inactive)
- GI50 (786-0): > 100 µM (inactive)
- GI50 (OVCAR-5): > 100 µM (inactive)
- GI50 (HCC 2998): > 100 µM (inactive)
- GI50 (UACC-62): > 100 µM (inactive)
- GI50 (SN12C): > 100 µM (inactive)
- GI50 (ACHN): > 100 µM (inactive)
- GI50 (M19-MEL): > 100 µM (inactive)
- GI50 (RPMI-8226): 70.8 µM (inactive)
- GI50 (Malme-3M): > 100 µM (inactive)
- GI50 (HCT-116): > 100 µM (inactive)
- GI50 (HOP-62): > 100 µM (inactive)
- GI50 (HL-60): 35.7 µM (inactive)
- GI50 (SNB-19): > 100 µM (inactive)
- GI50 (EKVX): > 100 µM (inactive)
- GI50 (SK-MEL-5): > 100 µM (inactive)
- GI50 (SNB-78): > 100 µM (inactive)
- GI50 (SF-268): > 100 µM (inactive)
- GI50 (MOLT-4): 93.3 µM (inactive)
- GI50 (OVCAR-3): > 100 µM (inactive)
- GI50 (SR): 41.9 µM (inactive)
- GI50 (HCT-15): > 100 µM
- GI50 (SK-MEL-2): > 100 µM (inactive)
- GI50 (KM12): > 100 µM (inactive)
- GI50 (SF-539): > 100 µM (inactive)
- GI50 (HT-29): > 100 µM (inactive)
- GI50 (OVCAR-8): > 100 µM (inactive)
- GI50 (UACC-257): > 100 µM (inactive)
- GI50 (UO-31): > 100 µM (inactive)
- GI50 (DLD-1): > 100 µM (inactive)
- GI50 (IGROV-1): > 100 µM (inactive)
- GI50 (NCI-H460): > 100 µM (inactive)
- GI50 (SK-MEL-28): > 100 µM (inactive)
- GI50 (M14): > 100 µM (inactive)
- GI50 (NCI-H23): > 100 µM (inactive)
- GI50 (U-251): > 100 µM (inactive)

SMILES: N=C(N)NCCCC(NCc1c2ccccc2[n+]([O-])c2ccccc12)C(=O)O (stereo unspecified)
- GI50 (DMS-114): 26.4 µM (inactive)
- GI50 (TK-10): > 100 µM (inactive)
- GI50 (HOP-18): > 100 µM (inactive)
- GI50 (K562): 29.7 µM (inactive)
- GI50 (LXFL 529): 32.7 µM (inactive)
- GI50 (SW-620): 39.8 µM (inactive)
- GI50 (CCRF-CEM): 24.5 µM (inactive)
- GI50 (LOX IMVI): 34.5 µM (inactive)
- GI50 (KM-20L2): 42.9 µM (inactive)
- GI50 (OVCAR-4): 31.2 µM (inactive)
- GI50 (SF-295): > 100 µM (inactive)
- GI50 (SK-OV-3): > 100 µM (inactive)
- GI50 (NCI-H226): 35.5 µM (inactive)
- GI50 (COLO 205): > 100 µM (inactive)
- GI50 (A549): > 100 µM (inactive)
- GI50 (A498): 98.4 µM (inactive)
- GI50 (DMS-273): 40.4 µM (inactive)
- GI50 (RXF 631): 59.8 µM (inactive)
- GI50 (SNB-75): 28.2 µM (inactive)
- GI50 (NCI-H522): 27 µM (inactive)
- GI50 (786-0): 38.9 µM (inactive)
- GI50 (OVCAR-5): > 100 µM (inactive)
- GI50 (HCC 2998): 74.5 µM (inactive)
- GI50 (CAKI-1): 60.8 µM (inactive)
- GI50 (UACC-62): 54.8 µM (inactive)
- GI50 (SN12C): 52.7 µM (inactive)
- GI50 (ACHN): 42.7 µM (inactive)
- GI50 (RPMI-8226): 30.3 µM (inactive)
- GI50 (Malme-3M): > 100 µM (inactive)
- GI50 (HCT-116): 25.6 µM (inactive)
- GI50 (HOP-62): > 100 µM (inactive)
- GI50 (HL-60): 24.9 µM (inactive)
- GI50 (SNB-19): 55.6 µM (inactive)
- GI50 (EKVX): > 100 µM (inactive)
- GI50 (SK-MEL-5): 36.4 µM (inactive)
- GI50 (SNB-78): 66.7 µM (inactive)
- GI50 (SF-268): 33.8 µM (inactive)
- GI50 (MOLT-4): 27.1 µM (inactive)
- GI50 (OVCAR-3): > 100 µM (inactive)
- GI50 (HCT-15): 32.9 µM
- GI50 (SK-MEL-2): > 100 µM (inactive)
- GI50 (KM12): 50.8 µM (inactive)
- GI50 (HT-29): 37.3 µM (inactive)
- GI50 (OVCAR-8): 52.5 µM (inactive)
- GI50 (UACC-257): > 100 µM (inactive)
- GI50 (UO-31): 23.6 µM (inactive)
- GI50 (DLD-1): 38.8 µM (inactive)
- GI50 (IGROV-1): 71.9 µM (inactive)
- GI50 (NCI-H460): 41.6 µM (inactive)
- GI50 (SK-MEL-28): 40.8 µM (inactive)
- GI50 (M14): 85.5 µM (inactive)
- GI50 (NCI-H23): 42.2 µM (inactive)
- GI50 (U-251): 77.4 µM (inactive)
